Experimental findings from patent US20230093099A1, “COMPOUNDS AND METHODS OF TREATING CANCERS” (CULLGEN (SHANGHAI), INC., priority 2019, published 2023) are described below.

This test relates to RS4;11 cells. Put plainly: Cell viability assay (CellTiter-Glo) in RS4;11 cells. It is filed as cell-based. The settings on record: Homo sapiens, 72 h; RS4;11 cells; cell viability, 3 days, CellTiter-Glo; read-out: IC50. An outline of the steps: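 RS4;11 cells seeded at 5000 per well, exposed for 3 days to 8- or 12-point 3-fold serial dilutions. Viability read by CellTiter-Glo luminescence; IC50 fitted by nonlinear least-squares regression.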
(In general: Cellular ATP, detected with luciferase, serves as a proxy for viable cell number.)
For `Cc1ncsc1-c1ccc(CNC(=O)[C@@H]2C[C@@H](O)CN2C(=O)[C@@H](NC(=O)COCC(=O)N2CCC(n3cc(-c4cnc5cccc(-c6cc(F)c(CN7CCOCC7)c(F)c6)c5n4)cn3)CC2)C(C)(C)C)cc1` [JA-057, (2S,4R)-1-[(2S)-2-[[2-[2-[4-[4-[8-[3,5-Difluoro-4-(morpholinomethyl)phenyl]quinoxalin-2-yl]pyrazol-1-yl]-1-piperidyl]-2-oxo-ethoxy]acetyl]amino]-3,3-dimethyl-butanoyl]-4-hydroxy-N-[[4-(4-methylthiazol-5-yl)phenyl]methyl]pyrrolidine-2-carboxamide], the half-maximal inhibitory concentration (IC50) (as a rule, the concentration that inhibits the measured activity by half) is over 10000 nM.
Then `Cc1cnc(Nc2ccc(N3CCN(CC(=O)NCCCCCCCCCC(=O)N[C@H](C(=O)N4C[C@H](O)C[C@H]4C(=O)NCc4ccc(-c5scnc5C)cc4)C(C)(C)C)CC3)cc2)nc1Nc1cccc(S(=O)(=O)NC(C)(C)C)c1` [JA-105, (2S,4R)-1-((S)-2-(10-(2-(4-(4-((4-((3-(N-(tert-Butyl)sulfamoyl)phenyl)amino)-5-methylpyrimidin-2-yl)amino)phenyl)piperazin-1-yl)acetamido)decanamido)-3,3-dimethylbutanoyl)-4-hydroxy-N-(4-(4-methylthiazol-5-yl)benzyl)pyrrolidine-2-carboxamide], with over 10000 nM; and `O=C1CCC(N2C(=O)c3cccc(NCCCC(=O)N4CCC(n5cc(-c6cnc7cccc(-c8cc(F)c(CN9CCOCC9)c(F)c8)c7n6)cn5)CC4)c3C2=O)C(=O)N1` (stereo not shown) [JA-005, 4-[[4-[4-[4-[8-[3,5-Difluoro-4-(morpholinomethyl)phenyl]quinoxalin-2-yl]pyrazol-1-yl]-1-piperidyl]-4-oxo-butyl]amino]-2-(2,6-dioxo-3-piperidyl)isoindoline-1,3-dione], with 510 nM; and `Cc1ncsc1-c1ccc(CNC(=O)[C@@H]2C[C@@H](O)CN2C(=O)[C@@H](NC(=O)CNC(=O)CN2CCN(c3ccc(Nc4nc5cccc(-c6ccc(S(C)(=O)=O)cc6)n5n4)cc3)CC2)C(C)(C)C)cc1` [JA-126, (2S,4R)-1-((S)-3,3-Dimethyl-2-(2-(2-(4-(4-((5-(4-(methylsulfonyl)phenyl)-[1,2,4]triazolo[1,5-a]pyridin-2-yl)amino)phenyl)piperazin-1-yl)acetamido)acetamido)butanoyl)-4-hydroxy-N-(4-(4-methylthiazol-5-yl)benzyl)pyrrolidine-2-carboxamide], with over 10000 nM.
The result for `Cc1ncsc1-c1ccc(CNC(=O)[C@@H]2C[C@@H](O)CN2C(=O)[C@@H](NC(=O)CCCCCCCCCNC(=O)CN2CCC(n3cc(-c4cnc5cccc(-c6cc(F)c(CN7CCOCC7)c(F)c6)c5n4)cn3)CC2)C(C)(C)C)cc1` [JA-166, (2S,4R)-1-((S)-2-(10-(2-(4-(4-(8-(3,5-Difluoro-4-(morpholinomethyl)phenyl)quinoxalin-2-yl)-1H-pyrazol-1-yl)piperidin-1-yl)acetamido)decanamido)-3,3-dimethylbutanoyl)-4-hydroxy-N-(4-(4-methylthiazol-5-yl)benzyl)pyrrolidine-2-carboxamide] reads 4450 nM; that for `O=C(CN1CCC(n2cc(-c3cnc4cccc(-c5cc(F)c(CN6CCOCC6)c(F)c5)c4n3)cn2)CC1)NCCCCCNc1ccc2c(c1)C(=O)N(C1CCC(=O)NC1=O)C2=O` (stereo not shown) [JA-177, 2-(4-(4-(8-(3,5-Difluoro-4-(morpholinomethyl)phenyl)quinoxalin-2-yl)-1H-pyrazol-1-yl)piperidin-1-yl)-N-(5-((2-(2,6-dioxopiperidin-3-yl)-1,3-dioxoisoindolin-5-yl)amino)pentyl)acetamide], 890 nM.
`CS(=O)(=O)c1ccc(-c2cccc3nc(Nc4ccc(N5CCN(C(=O)CCCCC#Cc6ccc7c(c6)CN(C6CCC(=O)NC6=O)C7=O)CC5)cc4)nn23)cc1` (stereo not shown) [JA-250, 3-(5-(7-(4-(4-((5-(4-(Methylsulfonyl)phenyl)-[1,2,4]triazolo[1,5-a]pyridin-2-yl)amino)phenyl)piperazin-1-yl)-7-oxohept-1-yn-1-yl)-1-oxoisoindolin-2-yl)piperidine-2,6-dione]: the IC50 was found to be 181 nM.
